Measured values reported in PubChem BioAssay (NCI).
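Where inhibition never reached the appropriate level, the endpoint shown equals the highest concentration tested. Otherwise, values were interpolated linearly from a five-concentration, 48-hour dose response in 96-well plates. The concentration for full growth arrest is given as TGI.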

What was measured:
Test in all cases: NCI-60 cell line screen, 48 h
NCI-H23 lung = test system: NCI-H23 lung
OVCAR-5 ovarian = test system: OVCAR-5 ovarian
U251 CNS = test system: U251 CNS
MOLT-4 leukemia = test system: MOLT-4 leukemia
HCT-116 colon = test system: HCT-116 colon
NCI-H522 lung = test system: NCI-H522 lung
MDA-MB-231 breast = test system: MDA-MB-231 breast
MCF7 breast = test system: MCF7 breast
NCI-H460 lung = test system: NCI-H460 lung
DU-145 prostate = test system: DU-145 prostate

| SMILES | TGI (NCI-H23 lung) | TGI (OVCAR-5 ovarian) | TGI (U251 CNS) | TGI (MOLT-4 leukemia) | TGI (HCT-116 colon) | TGI (NCI-H522 lung) | TGI (MDA-MB-231 breast) | TGI (MCF7 breast) | TGI (NCI-H460 lung) | TGI (DU-145 prostate) |
| --- | --- | --- | --- | --- | --- | --- | --- | --- | --- | --- |
| O=[N+]([O-])c1ccc(Cl)cc1-n1nc(-c2ccccc2)cc1-c1ccccc1 | > 100 µM | > 100 µM | > 100 µM | > 100 µM | > 100 µM | > 100 µM | > 100 µM | > 100 µM | > 100 µM | > 100 µM |
| COC(=O)c1ccc2c(c1)CC1(C2)Cc2cc3c(c(C(=O)OC)c2C1)CCCC3 (stereo not given) | > 100 µM | > 100 µM | > 100 µM | > 100 µM | > 100 µM | > 100 µM | > 100 µM | > 100 µM | > 100 µM | > 100 µM |
| CC(C)Nc1[nH]c(C(=O)c2ccccc2)c(N)c1C(=S)Nc1ccccc1 | > 100 µM | > 100 µM | > 100 µM | > 100 µM | > 100 µM | > 100 µM | > 100 µM | > 100 µM | > 100 µM | > 100 µM |
| Cc1cccc(/C=N/NC(=S)NCc2ccccn2)n1 | > 100 µM | > 100 µM | > 100 µM | > 100 µM | > 100 µM | > 100 µM | > 100 µM | > 100 µM | > 100 µM | > 100 µM |
| CCC1(OC(=O)CN2CCN(CCO)CC2)C(=O)OCc2c1cc1n(c2=O)Cc2cc3ccccc3nc2-1 (stereo not given) | 2.43 µM | 7.6 µM | 2.41 µM | 1.59 µM | 3.35 µM | 3.05 µM | 65.7 µM | 2.18 µM | 0.971 µM | 2.24 µM |
| CCOC(=O)N1CCN(Cc2cc(=O)n3cc(C)ccc3n2)CC1 | > 100 µM | > 100 µM | > 100 µM | > 100 µM | > 100 µM | > 100 µM | > 100 µM | > 100 µM | > 100 µM | > 100 µM |
| O=C(O)c1cccc(S(=O)(=O)NN2C(=O)CSC2c2ccccc2)c1 (stereo not given) | > 100 µM | > 100 µM | > 100 µM | > 100 µM | > 100 µM | > 100 µM | > 100 µM | > 100 µM | > 100 µM | > 100 µM |
| COc1cc(N(CCC#N)CCC#N)ccc1/C(N=Nc1ccc(C)cc1)=N/NC(=O)c1cc(Br)ccc1O | 39.3 µM | > 100 µM | > 100 µM | 37.3 µM | 41.2 µM | 50.3 µM | 55.2 µM | > 100 µM | 54.4 µM | 94.7 µM |
| COc1ccccc1/C=C1\Sc2scc(-c3cccc([N+](=O)[O-])c3)[n+]2C1=O | 29.6 µM | 39 µM | 39.6 µM | 3.44 µM | 16.7 µM | 3.61 µM | 19.3 µM | 10.3 µM | 26.9 µM | 26.6 µM |
| Cc1cn(CC2=NCCN2)c(=O)[nH]c1=O | > 100 µM | > 100 µM | > 100 µM | > 100 µM | > 100 µM | > 100 µM | > 100 µM | > 100 µM | > 100 µM | > 100 µM |
| COC(=O)C1Cc2c([nH]c3ccccc23)C(c2cccc(O)c2)N1 (stereo not given) | 96.8 µM | 82.9 µM | > 100 µM | > 100 µM | > 100 µM | > 100 µM | 51.2 µM | > 100 µM | 62 µM | 55.3 µM |
| CC[C@@H](CCCC[C@@H]1CC[C@H]2CC(=O)C[C@@H]12)OC | > 100 µM | > 100 µM | > 100 µM | > 100 µM | > 100 µM | > 100 µM | > 100 µM | > 100 µM | > 100 µM | > 100 µM |
